Measurements from US20100249017A1, “USE OF CNP-22, ALONE OR IN COMBINATION WITH PHYSALEMIN, AS A THERAPEUTIC AGENT” (priority 2007, published 2010).
Square brackets hold non-standard residues; d marks the D form. Ends that are not written are not given here. pGlu = O=C1CC[C@@H](C(=O)O)N1

What was measured:
[1] = tested on: hepatitis B virus (HBV) ayw strain; assay: HBV experimental assay system, secreted HBV DNA by TaqMan PCR; type: cell-based; settings: 10 micrograms per ml; HepG2-2.2.15 cells; six days
[2] = tested on: spleen cells of Ovalbumin-immunized Balb/c mice; assay: Th1/Th2 cytokine profiling assay; type: cell-based, mouse; settings: 10 micrograms per ml; Ovalbumin restimulation; 72 hours
Description: The Balb/c mice (originated in 1923, it is a popular strain and is used in many different research disciplines. Also classified as an inbred from the production of 20 or more successive brother-sister matings, the Balb/c mouse is albino and small in size) were immunized on Days 1, 15, and 29 with Ovalbumin (Ovalbumin is the main protein found in egg white, commonly used to stimulate an immunological reaction in test animals) in PBS (5 micrograms/injection). On day 50, spleens of the mice were harvested (3 weeks after last boost with Ovalbumin). Cells were cultured (2×10^5/well in triplicate) and incubated with culture medium or test peptides—10 micrograms per ml—for 30 min. Thereafter, additional Ovalbumin was added to the cells at 10 micrograms/ml for in vitro restimulation of the cells. 72 hours later, cell supernatants were harvested and assayed using the Becton Dickinson Mouse Th1/Th2 Cytokine CBA Kit.

HUVEC = assay: Endothelial tube formation assay; type: cell-based, human; settings: 10 micrograms per ml, 20 hours
Description: Positive control was vehicle only. […] Raw data were expressed as average tubule lenghs in pixels±standard deviation.

RAW 264.7 cells = assay: Phagocytosis assay; settings: 10 micrograms per ml, Fluorescein-labeled Escherichia coli
HCMV strain AD169 = assay: HCMV plaque formation assay in MRC-5 cells; settings: 10 micrograms per ml, 7-10 days
Description: Cells were split twic a week 1:2.
Ganciclovir was used as positive control.

[3] = tested on: Primary Human endothelial cells (HUVEC); assay: Endothelial cell migration assay; type: cell-based; settings: 10 micrograms per ml, 22 hours
Description: Thereafter, designated concentration of testing peptides—10 micrograms per ml—was added in duplicate wells.

Substance: Gly-Leu-Ser-Lys-Gly-Cys-Phe-Gly-Leu-Lys-Leu-Asp-Arg-Ile-Gly-Ser-Met-Ser-Gly-Leu-Gly-Cys-OH (GLSKGCFGLKLDRIGSMSGLGC-OH; cysteine pairing not given here) [peptide 1]
- inhibition of HBV replication as compared to the virus control infection [1]: 10.1%
- IFNγ spleen cells; TH1 response (% of control) [2]: 140.2 % of control
- IL-2 spleen cells (% of control) [2]: 52.2 % of control
- IL-4 spleen cells; TH2 response (% of control) [2]: 0.0 % of control
- IL-5 spleen cells; TH2 response (% of control) [2]: 56.3 % of control
- TNF-a spleen cells; TH1 response (% of control) [2]: 111.8 % of control
- inhibition of the tube formation of human endothelial cells (HUVEC): 22%
- induction of phagocytosis as compared to the virus control experiment (RAW 264.7 cells): 42.9%
- inhibition of HCMV plaque formation as compared to the virus control experiment (HCMV strain AD169): did not show any inhibition

Substance: Pyr-Ala-Asp-Pro-Asn-Lys-Phe-Tyr-Gly-Leu-Met-NH2 ([pGlu]ADPNKFYGLM-NH2; SMILES CSCC[C@H](NC(=O)[C@H](CC(C)C)NC(=O)CNC(=O)[C@H](Cc1ccc(O)cc1)NC(=O)[C@H](Cc1ccccc1)NC(=O)[C@H](CCCCN)NC(=O)[C@H](CC(N)=O)NC(=O)[C@@H]1CCCN1C(=O)[C@H](CC(=O)O)NC(=O)[C@H](C)NC(=O)[C@@H]1CCC(=O)N1)C(N)=O) [peptide 2]
- inhibition of HBV replication as compared to the virus control infection [1]: no effect
- IFNγ spleen cells; TH1 response (% of control) [2]: 74.2 % of control
- IL-2 spleen cells (% of control) [2]: 0.0 % of control
- IL-4 spleen cells; TH2 response (% of control) [2]: 0.0 % of control
- IL-5 spleen cells; TH2 response (% of control) [2]: 53.0 % of control
- TNF-a spleen cells; TH1 response (% of control) [2]: 85.7 % of control
- induction of the migration of human endothelial cells [3]: 15%
- inhibition of the tube formation of human endothelial cells (HUVEC): 6%
- induction of phagocytosis as compared to the virus control experiment (RAW 264.7 cells): did not induce phagocytosis
- inhibition of HCMV plaque formation as compared to the virus control experiment (HCMV strain AD169): did not show any inhibition
